Measurements from patent US5859007A, “CCK or gastrin modulating benzo [b][1,4] diazepines derivatives” (Glaxo Wellcome Inc., priority 1994, dated 1999).
Read-outs that look alike come from different tables or passages of the source. No end group written: not given here.

Tests used:
rat gastric emptying = assay: Rat gastric emptying assay; assay type: in vivo; conditions: vehicle 66
Protocol: 7. RAT GASTRIC EMPTYING PROTOCOL
Methyl Cellulose (MC) Test Meal
1. Disperse MC in water at 80° C. at a final concentration of 1.5% under continuous stirring. Cool to room temperature.
2. Add Phenol Red (50 mg/100) to solution.
3. Keep solution stirring during entire experiment.
1. Food deprive animals for 18 hours.
2. Inject test drug/prop. glycol or prop. glycol alone intraperitoneally.
3. After 5 minutes, gavage 1.5 mL of Pheno Red/MC solution
1. After 20 minutes, decapitate animal
2. Clamp stomach at the pylorus and cardia ends, and rinse in 0.9% NaCl.
3. Place stomach in 100 mL of 0.1N NaOH, cut into small pieces, and homogenize for 30 seconds.
4. Let settle at room temperature for 60 minutes.
5. In centrifuge tube, add 5 mL of supernatant and 0.5 mL of trichloroacetic acid (29% w/v), and centrifuge at 2,800 rpm for 20 minutes.
6. Decant supernatant, and add 4 mL of 0.5N NaOH and read absorbance at a wavelength of 560 nm.
Calculations [formula] The standard stomach is determined from the phenol red recovered in stomachs of rats decapitated immediately after intragastric infusion of MC/phenol red.

[1] = system: isolated guinea pig gallbladder; assay: Functional activity in isolated guinea pig gallbladder preparation; assay type: cell-based
[2] = intraperitoneally at 0.1 μmoles/kg
[3] = Cavia porcellus, delivered at 30 μM, read-out: Isolated guinea pig gallbladder: % contraction

Molecule | rat gastric emptying: % emptying (rat gastric emptying; [2]) | activation at 30 µM [1, 3] | activation at 1 µM ([1]; Cavia porcellus, 1 × 10^-6 M test compound, expressed as % CCK-induced maximal response, read-out: %Contraction (1 × 10^-6 M)) | activation at 30 µM ([1]; Cavia porcellus, 3 × 10^-5 M test compound, expressed as % CCK-induced maximal response, read-out: % Contraction (3 × 10^-5 M)) | rat gastric emptying: % emptying (rat gastric emptying; CCK-8 intraperitoneally at 30 nmoles/kg) | Isolated guinea pig gallbladder: % contraction ([1]; delivered at 1 μM)
COc1ccc(N(C(=O)CN2C(=O)C(Cc3n[nH]c4ccccc34)C(=O)N(c3ccccc3)c3ccccc32)C(C)C)cc1 (centres unmarked) [Example 31, 2-[3-(1H-Indazol-3-ylmethyl)-2,4-dioxo-5-phenyl-2,3,4,5-tetrahydro-benzo[b][1,4]diazepin-1-yl]-N-isopropyl-N-(4-methoxy-phenyl) acetamide] | 6% | 87% | – | – | – | –
COc1ccc(N(C(=O)CN2C(=O)C(Cc3n[nH]c4ccccc34)C(=O)N(c3ccccn3)c3ccccc32)C(C)C)cc1 (centres unmarked) [Example 49, 2-[3-(1H-Indazol-3-ylmethyl)-2,4-dioxo-5-pyrid-2-yl-2,3,4,5-tetrahydro-benzo[b][1,4]diazepin-1-yl]-N-isopropyl-N-(4-methoxy-phenyl) acetamide] | 2.5% | 100% | 75% | 91% | – | –
CCK8: the Cterminal octapeptide of CCK (DYMGWMDF; ends and bridges not checked; UniProt P06307 96-103, looked up) [reference compound] | – | – | – | – | 0% | 100%
